Test results published in patent US9139529B2, “Substituted quinoxalines as sodium channel modulators” (VERTEX PHARMACEUTICALS INCORPORATED, priority 2013, dated 2015).

These molecules were tested against human Nav1.8 (Homo sapiens (Human), UniProt Q9Y5Y9) (assay: E-VIPR optical membrane potential assay with electrical stimulation). Details: HEK cells expressing human Nav1.8.
Type: cell-based
From the text: Assays for Detecting and Measuring NaV Inhibition Properties of Compounds E-VIPR Optical Membrane Potential Assay Method with Electrical Stimulation
Sodium channels are voltage-dependent proteins that can be activated by inducing membrane voltage changes by applying electric fields. The electrical stimulation instrument and methods of use are described in Ion Channel Assay Methods PCT/US01/21652, herein incorporated by reference and are referred to as E-VIPR. The instrument comprises a microtiter plate handler, an optical system for exciting the coumarin dye while simultaneously recording the coumarin and oxonol emissions, a waveform generator, a current- or voltage-controlled amplifier, and a device for inserting electrodes in well. Under integrated computer control, this instrument passes user-programmed electrical stimulus protocols to cells within the wells of the microtiter plate.
24 hours before the assay on E-VIPR, HEK cells expressing human Nav1.8 were seeded in 384-well poly-lysine coated plates at 15,000-20,000 cells per well. HEK cells were grown in media (exact composition is specific to each cell type and NaV subtype) supplemented with 10% FBS (Fetal Bovine Serum, qualified; GibcoBRL #16140-071) and 1% Pen-Strep (Penicillin-Streptomycin; GibcoBRL #15140-122). Cells were grown in vented cap flasks, in 90% humidity and 5% CO2.
1) Pre-spotted compounds (in neat DMSO) into compound plates. Vehicle control (neat DMSO), the positive control (20 mM DMSO stock tetracaine, 125 μM final in assay) and test compounds were added to each well at 160× desired final concentration in neat DMSO. Final compound plate volume was 80 μL (80-fold intermediate dilution from 1 μL DMSO spot; 160-fold final dilution after transfer to cell plate). Final DMSO concentration for all wells in assay was 0.625%.
2) Prepared Hexyl Dye Solution.
3) Prepared cell plates. On the day of the assay, medium was aspirated and cells were washed three times with 100 μL of Bath1 Solution, maintaining 25 μL residual volume in each well.
4) Dispensed 25 μL per well of Hexyl Dye Solution into cell plates. Incubated for 20-35 minutes at room temp or ambient conditions.
5) Dispensed 80 μL per well of Bath1 into compound plates. Acid Yellow-17 (1 mM) was added and Potassium Chloride was altered from 4.5 to 20 mM depending on the NaV subtype and assay sensitivity.
6) Washed cell plates three times with 100 μL per well of Bath1, leaving 25 μL of residual volume. Then transferred 25 uL per well from Compound Plates to Cell Plates. Incubated for 20-35 minutes at room temp/ambient condition.
7) Read Plate on E-VIPR. Used the current-controlled amplifier to deliver stimulation wave pulses for 10 seconds and a scan rate of 200 Hz. A pre-stimulus recording was performed for 0.5 seconds to obtain the un-stimulated intensities baseline. The stimulatory waveform was followed by 0.5 seconds of post-stimulation recording to examine the relaxation to the resting state.
Data was analyzed and reported as normalized ratios of emission intensities measured in the 460 nm and 580 nm channels. The response as a function of time was reported as the ratios obtained using the following formula: […]
The data was further reduced by calculating the initial (Ri) and final (Rf) ratios. These were the average ratio values during part or all of the pre-stimulation period, and during sample points during the stimulation period. The response to the stimulus R=Rf/Ri was then calculated and reported as a function of time.
Control responses were obtained by performing assays in the presence of a compound with the desired properties (positive control), such as tetracaine, and in the absence of pharmacological agents (negative control). Responses to the negative (N) and positive (P) controls were calculated as above. The compound antagonist activity A is defined as:
[formula] where R is the ratio response of the test compound

Chain of human Nav1.8 (Q9Y5Y9 whole entry): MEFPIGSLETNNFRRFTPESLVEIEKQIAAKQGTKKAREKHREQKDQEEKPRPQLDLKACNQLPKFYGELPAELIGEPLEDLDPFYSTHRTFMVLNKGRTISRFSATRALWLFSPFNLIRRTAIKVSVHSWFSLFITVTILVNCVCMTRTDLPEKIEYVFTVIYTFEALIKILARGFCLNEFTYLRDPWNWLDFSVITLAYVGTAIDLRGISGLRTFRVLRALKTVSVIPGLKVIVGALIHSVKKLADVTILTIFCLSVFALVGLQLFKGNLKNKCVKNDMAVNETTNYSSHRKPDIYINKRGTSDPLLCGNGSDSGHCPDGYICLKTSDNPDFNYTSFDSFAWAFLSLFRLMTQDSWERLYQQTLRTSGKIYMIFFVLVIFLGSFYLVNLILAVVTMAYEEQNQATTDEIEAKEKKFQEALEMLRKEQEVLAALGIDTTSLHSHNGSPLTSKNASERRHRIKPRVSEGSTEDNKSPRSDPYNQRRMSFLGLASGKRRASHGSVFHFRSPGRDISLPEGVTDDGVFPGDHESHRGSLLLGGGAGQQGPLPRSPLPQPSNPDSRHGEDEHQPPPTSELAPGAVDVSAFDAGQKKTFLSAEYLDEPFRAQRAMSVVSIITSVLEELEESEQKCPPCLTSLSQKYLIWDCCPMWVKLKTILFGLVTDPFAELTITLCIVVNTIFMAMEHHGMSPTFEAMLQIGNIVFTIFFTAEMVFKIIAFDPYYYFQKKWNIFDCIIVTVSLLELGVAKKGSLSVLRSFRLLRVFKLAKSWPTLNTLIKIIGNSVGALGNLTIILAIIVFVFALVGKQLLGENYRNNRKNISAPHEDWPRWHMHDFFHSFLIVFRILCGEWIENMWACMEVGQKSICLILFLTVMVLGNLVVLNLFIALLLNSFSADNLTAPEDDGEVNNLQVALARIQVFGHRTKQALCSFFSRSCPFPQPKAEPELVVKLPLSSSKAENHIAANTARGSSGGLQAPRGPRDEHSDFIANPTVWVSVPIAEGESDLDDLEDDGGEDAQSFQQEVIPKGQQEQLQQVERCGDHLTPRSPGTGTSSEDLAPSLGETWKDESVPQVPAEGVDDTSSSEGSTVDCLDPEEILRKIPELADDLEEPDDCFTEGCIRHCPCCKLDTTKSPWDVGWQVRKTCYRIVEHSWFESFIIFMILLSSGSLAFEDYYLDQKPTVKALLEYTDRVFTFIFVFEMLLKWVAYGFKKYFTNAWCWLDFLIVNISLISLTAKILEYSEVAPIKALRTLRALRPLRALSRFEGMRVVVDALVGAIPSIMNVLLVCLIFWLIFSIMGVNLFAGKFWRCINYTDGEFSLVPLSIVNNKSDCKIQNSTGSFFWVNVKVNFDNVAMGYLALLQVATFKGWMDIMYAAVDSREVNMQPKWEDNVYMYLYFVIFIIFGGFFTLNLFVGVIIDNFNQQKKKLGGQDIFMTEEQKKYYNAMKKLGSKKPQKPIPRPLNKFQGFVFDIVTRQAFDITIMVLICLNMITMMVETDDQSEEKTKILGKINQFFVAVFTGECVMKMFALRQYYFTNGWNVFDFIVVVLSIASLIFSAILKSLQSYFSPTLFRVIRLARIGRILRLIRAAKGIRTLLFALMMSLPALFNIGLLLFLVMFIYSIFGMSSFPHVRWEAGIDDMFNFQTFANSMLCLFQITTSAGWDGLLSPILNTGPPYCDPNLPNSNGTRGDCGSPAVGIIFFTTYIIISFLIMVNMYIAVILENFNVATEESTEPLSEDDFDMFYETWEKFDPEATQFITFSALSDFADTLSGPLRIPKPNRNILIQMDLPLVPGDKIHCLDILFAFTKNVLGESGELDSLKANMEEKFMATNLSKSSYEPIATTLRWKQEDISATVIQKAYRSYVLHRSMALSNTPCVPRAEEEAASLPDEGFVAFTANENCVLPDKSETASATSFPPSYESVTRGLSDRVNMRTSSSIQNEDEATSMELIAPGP

Row | Compound | IC50
1 | COc1cc(Cl)ccc1Oc1nc2ccccc2nc1C(=O)Nc1cccc(S(N)(=O)=O)c1 [Compound 11, 3-(4-chloro-2-methoxyphenoxy)-N-(3-sulfamoylphenyl)quinoxaline-2-carboxamide] | 0.005 µM
2 | O=C(O)c1ccc(NC(=O)c2nc3ccccc3nc2Oc2ccc(OC(F)(F)F)cc2)cc1 [Compound 17, 4-(3-(4-(trifluoromethoxy)phenoxy)quinoxaline-2-carboxamido)benzoic acid] | 0.044 µM
3 | NS(=O)(=O)c1cccc(NC(=O)c2nc3ccccc3nc2Oc2ccccc2OC(F)F)c1 [Compound 10, 3-(2-(difluoromethoxy)phenoxy)-N-(3-sulfamoylphenyl)quinoxaline-2-carboxamide] | 0.036 µM
4 | COc1cc(F)ccc1Oc1nc2ccccc2nc1C(=O)Nc1ccc(C#N)cn1 [Compound 52, N-(5-cyanopyridin-2-yl)-3-(4-fluoro-2-methoxyphenoxy)quinoxaline-2-carboxamide] | 2.4 µM

Continued, values first:

Row | IC50 | Compound
5 | 0.086 µM | COc1cc(F)ccc1Oc1nc2ccccc2nc1C(=O)Nc1ccc2[nH]ncc2c1 [Compound 48, 3-(4-fluoro-2-methoxyphenoxy)-N-(1H-indazol-5-yl)quinoxaline-2-carboxamide]
6 | 0.086 µM | Cc1cc(F)ccc1Oc1nc2ccccc2nc1C(=O)Nc1ccc(C(=O)O)nc1 [Compound 19, 5-(3-(4-fluoro-2-methylphenoxy)quinoxaline-2-carboxamido)picolinic acid]
7 | 0.585 µM | COc1cc(F)ccc1Oc1nc2ccccc2nc1C(=O)Nc1ccc2nc[nH]c2c1 [Compound 49, N-(1H-benzo[d]imidazol-6-yl)-3-(4-fluoro-2-methoxyphenoxy)quinoxaline-2-carboxamide]
8 | 0.051 µM | O=C(O)c1ccc(NC(=O)c2nc3ccccc3nc2Oc2ccc(F)cc2Cl)cn1 [Compound 28, 5-(3-(2-chloro-4-fluorophenoxy)quinoxaline-2-carboxamido)picolinic acid]
